Laboratory results taken from patent US11661419B2, “Benzimidazole derivative compounds and uses thereof” (Pfizer Inc., priority 2019, dated 2023).

Key:
[1] = tested on: IL-2 in activated CD4+ human T-cells; experiment: IL-2 inhibition in supernatants from activated CD4+ human T-cells (cisbio HTRF); assay type: cell-based; conditions: T-cell; geometric mean of count n; CD3/CD28-expanded human CD4+ T cells stimulated with ImmunoCult, 20 to 24 hrs
Protocol: IL-2-Inhibition Activity, IC50 (uM)
IL-2 inhibition activity in supernatants from activated CD4+ human T-cells was determined by measuring the effect of a test compound on the activity using the cisbio HTRF™ technology.
Human CD4+ T cells were activated with CD3/CD28 for 3 days and expanded for an additional 4-6 days (7 to 9 days total). On day 0, frozen CD4+ T cells were thawed, treated with CD3/CD28 Dynabeads, and incubated at 37° C./5% CO2. On day 3, the beads were removed, and the cells were diluted to 5×10^5 cells/cm^2, placed in G-Rex10 flask, and incubated at 37° C./5% CO2. On day 7 to day 9 the cells were removed from the G-Rex flasks, counted and diluted back to 1×10^6 cells/ml in standard tissue culture flask.
The expanded CD4+ T-cells were centrifuged at 300×g for 10 minutes and resuspended to 0.5 million cells per ml (30,000 cells/well). 60 μl of CD4+ T cells were added per well to a 384 well plate containing 0.1 μL of varying concentrations of test compound in DMSO. The plates were incubated for 15 min at 37° C./5% CO2. 20 μl of diluted ImmunoCult™ ([…] Technologies, 1:12.5 in T cell assay media) were added to all wells of the plate (1:50 final assay concentration). The plates were incubated for an additional 20 to 24 hrs at 37° C./5% CO2. The plates were centrifuged at 300×g for 10 minutes. 16 μL of supernatant was removed and combined with 4 μl of IL-2 HTRF Abs. (cisbio kit). Plates were incubated for 3 hours at RT and read with an EnVision plate reader at 665 nm and 615 nm wavelengths.

[2] = target: Tropomyosin receptor kinase A (TRKA, NTRK1) (Homo sapiens (Human), UniProt P04629); experiment: TRKA (NTRK1) enzyme Z'-LYTE assay; assay type: biochemical; conditions: arithmetic mean of count n; test compound 1 uM, ATP 1 mM
Sequence of Tropomyosin receptor kinase A (TRKA, NTRK1) (P04629 33-796): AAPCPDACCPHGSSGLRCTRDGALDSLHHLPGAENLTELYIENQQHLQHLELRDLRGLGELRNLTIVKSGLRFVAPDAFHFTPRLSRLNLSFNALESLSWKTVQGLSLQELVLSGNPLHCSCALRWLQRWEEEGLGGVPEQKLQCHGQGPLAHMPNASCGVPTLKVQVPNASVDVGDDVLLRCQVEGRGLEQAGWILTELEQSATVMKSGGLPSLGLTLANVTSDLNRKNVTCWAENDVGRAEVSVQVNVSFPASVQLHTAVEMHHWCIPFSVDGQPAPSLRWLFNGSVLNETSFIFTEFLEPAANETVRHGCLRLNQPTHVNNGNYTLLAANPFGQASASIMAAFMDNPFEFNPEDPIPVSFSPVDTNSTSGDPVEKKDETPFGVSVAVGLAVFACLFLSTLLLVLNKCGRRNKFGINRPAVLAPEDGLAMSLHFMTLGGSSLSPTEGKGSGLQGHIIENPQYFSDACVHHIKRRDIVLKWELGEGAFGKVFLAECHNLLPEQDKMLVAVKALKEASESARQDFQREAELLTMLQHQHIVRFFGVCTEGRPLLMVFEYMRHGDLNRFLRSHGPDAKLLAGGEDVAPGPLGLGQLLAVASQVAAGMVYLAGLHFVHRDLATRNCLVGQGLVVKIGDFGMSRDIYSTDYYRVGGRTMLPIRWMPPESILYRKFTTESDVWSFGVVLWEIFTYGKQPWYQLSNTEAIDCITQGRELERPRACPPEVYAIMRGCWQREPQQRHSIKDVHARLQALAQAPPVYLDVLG
Protocol: Tropomyosin Receptor Kinase a (TRKA) Activity, % Inhibition
TRKA, also known as neurotrophic tyrosine kinase receptor type 1 (NTKR1) activity was determined by measuring the effect of a test compound on the activity against the NTRK1 enzyme using the ThermoFisher Z'-LYTE Assay fluorescence-based coupled enzyme format (www.thermofisher.com/selectscreen). […] The resulting effect value for the tested compound was compared to the assay controls to determine the % inhibition (%).

| IC50 [1] [nM] | inhibition at 1 µM [2] [%] | SMILES |
| --- | --- | --- |
| 85 | 96 | C[C@@H](C(=O)N(C)c1cc(C#N)c2[nH]c(-c3n[nH]c4c3C[C@@H]3C[C@]3(C)C4)nc2c1)N1CCOCC1 [Example 38, (S)—N-(7-cyano-2-((4aS,5aR)-5a-methyl-1,4,4a,5,5a,6-hexahydrocyclopropa[f]indazol-3-yl)-1H-benzo[d]imidazol-5-yl)-N-methyl-2-morpholinopropanamide] |
| 103 | 96 | COc1cc(N(C)C(=O)[C@H](C)N2CCOCC2)cc2nc(-c3n[nH]c4c3C[C@@H]3C[C@]3(C)C4)[nH]c12 [Example 40, (S)—N-(7-methoxy-2-((4aS,5aR)-5a-methyl-1,4,4a,5,5a,6-hexahydrocyclopropa[f]indazol-3-yl)-1H-benzo[d]imidazol-5-yl)-N-methyl-2-morpholinopropanamide] |
| 176 | 96 | C[C@@H](C(=O)N(C)c1cc(C(F)(F)F)c2[nH]c(-c3n[nH]c4c3C[C@@H]3C[C@]3(C)C4)nc2c1)N1CCOCC1 [Example 41, (S)—N-methyl-N-(2-((4aS,5aR)-5a-methyl-1,4,4a,5,5a,6-hexahydrocyclopropa[f]indazol-3-yl)-7-(trifluoromethyl)-1H-benzo[d]imidazol-5-yl)-2-morpholinopropanamide] |
| 200 | 98 | COCc1cc(N(C)C(=O)[C@H](C)N2CCOCC2)cc2nc(-c3n[nH]c4c3C[C@@H]3C[C@]3(C)C4)[nH]c12 [Example 42, (S)—N-(7-(methoxymethyl)-2-((4aS,5aR)-5a-methyl-1,4,4a,5,5a,6-hexahydrocyclopropa[f]indazol-3-yl)-1H-benzo[d]imidazol-5-yl)-N-methyl-2-morpholinopropanamide] |
| 171 | 96 | C[C@@H](C(=O)N(C)c1cc(Cl)c2[nH]c(-c3n[nH]c4c3C[C@@H]3C[C@]3(C)C4)nc2c1)N1CCOCC1 [Example 43, (S)—N-(7-chloro-2-((4aS,5aR)-5a-methyl-1,4,4a,5,5a,6-hexahydrocyclopropa[f]indazol-3-yl)-1H-benzo[d]imidazol-5-yl)-N-methyl-2-morpholinopropanamide] |
| 219 | 94 | CCc1cc(N(C)C(=O)[C@H](C)N2CCOCC2)cc2nc(-c3n[nH]c4c3C[C@@H]3C[C@]3(C)C4)[nH]c12 [Example 44, (S)—N-(7-ethyl-2-((4aS,5aR)-5a-methyl-1,4,4a,5,5a,6-hexahydrocyclopropa[f]indazol-3-yl)-1H-benzo[d]imidazol-5-yl)-N-methyl-2-morpholinopropanamide] |
| 365 | 97 | C[C@@H](C(=O)N(C)c1cc(CO)c2[nH]c(-c3n[nH]c4c3C[C@@H]3C[C@]3(C)C4)nc2c1)N1CCOCC1 [Example 45, (S)—N-(7-(hydroxymethyl)-2-((4aS,5aR)-5a-methyl-1,4,4a,5,5a,6-hexahydrocyclopropa[f]indazol-3-yl)-1H-benzo[d]imidazol-5-yl)-N-methyl-2-morpholinopropanamide] |
| 161 | 98 | Cc1c(F)c(N(C)C(=O)[C@H](C)N2CCOCC2)cc2nc(-c3n[nH]c4c3C[C@@H]3C[C@]3(C)C4)[nH]c12 [Example 47, (S)—N-(6-fluoro-7-methyl-2-((4aS,5aR)-5a-methyl-1,4,4a,5,5a,6-hexahydrocyclopropa[f]indazol-3-yl)-1H-benzo[d]imidazol-5-yl)-N-methyl-2-morpholinopropanamide] |
| 207 | 95 | C[C@@H](C(=O)N(C)c1cc(C(F)F)c2[nH]c(-c3n[nH]c4c3C[C@@H]3C[C@]3(C)C4)nc2c1)N1CCOCC1 [Example 48, (S)—N-(7-(difluoromethyl)-2-((4aS,5aR)-5a-methyl-1,4,4a,5,5a,6-hexahydrocyclopropa[f]indazol-3-yl)-1H-benzo[d]imidazol-5-yl)-N-methyl-2-morpholinopropanamide] |
| 100 | 98 | COCCOc1cc2[nH]c(-c3n[nH]c4c3C[C@@H]3C[C@]3(C)C4)nc2cc1N(C)C(=O)[C@H](C)N1CCOCC1 [Example 49, (S)—N-(6-(2-methoxyethoxy)-2-((4aS,5aR)-5a-methyl-1,4,4a,5,5a,6-hexahydrocyclopropa[f]indazol-3-yl)-1H-benzo[d]imidazol-5-yl)-N-methyl-2-morpholinopropanamide] |
| 126 | 97 | Cc1cc(N(C)C(=O)[C@H](C)N2CCOCC2)cc2nc(-c3n[nH]c4c3C[C@@H]3C[C@]3(C)C4)[nH]c12 [Example 50, (S)—N-methyl-N-(7-methyl-2-((4aS,5aR)-5a-methyl-1,4,4a,5,5a,6-hexahydrocyclopropa[f]indazol-3-yl)-1H-benzo[d]imidazol-5-yl)-2-morpholinopropanamide] |
| 19 | 97 | Cc1cc(N(C)C(=O)[C@H](C)N2CCOCC2)cc2nc(-c3n[nH]c4c3C[C@@H]3C(F)(F)[C@]3(C)C4)[nH]c12 [Example 51, (S)—N-(2-((4aS,5aR)-5,5-difluoro-5a-methyl-1,4,4a,5,5a,6-hexahydrocyclopropa[f]indazol-3-yl)-7-methyl-1H-benzo[d]imidazol-5-yl)-N-methyl-2-morpholinopropanamide] |
| 274 | 109 | Cc1cc2[nH]c(-c3n[nH]c4c3C[C@@H]3C[C@]3(C)C4)nc2cc1NC(=O)[C@H](C)N1CCOCC1 [Example 52, (S)—N-(6-methyl-2-((4aS,5aR)-5a-methyl-1,4,4a,5,5a,6-hexahydrocyclopropa[f]indazol-3-yl)-1H-benzo[d]imidazol-5-yl)-2-morpholinopropanamide] |
| 41 | 89 | C[C@@H](C(=O)N(C)c1cc(C#N)c2[nH]c(-c3n[nH]c4c3C[C@@H]3C[C@]3(C)C4)nc2c1)C1CCOCC1 [Example 55, (R)—N-(7-cyano-2-((4aS,5aR)-5a-methyl-1,4,4a,5,5a,6-hexahydrocyclopropa[f]indazol-3-yl)-1H-benzo[d]imidazol-5-yl)-N-methyl-2-(tetrahydro-2H-pyran-4-yl)propanamide] |
